Experimental findings from patent US11261211B2, “19-NOR neuroactive steroids and methods of use thereof” (Sage Therapeutics, Inc., priority 2013, dated 2022) are described below.

This assay has as its target α1β2γ2 GABAA receptor (Homo sapiens (Human), UniProt P14867+P47870). As to the kind of experiment: Patch clamp electrophysiology of recombinant α1β2γ2 GABAA receptors in LTK cells. The settings on record: for activity at 10 µM / Emax: LTK; for activity at 10 µM / α1β2γ2 GABA Qpatch in Ltk (Efficacy at 10 μm): 10 μM compound, Qpatch, Ltk cells, GABA EC20 2 μM; for activity at 10 µM: read-out: α1β2γ2 GABA Qpatch in Ltk (Efficacy at 10 μm); for Emax / EC50: potentiation of GABA EC20 (2 μM) current; for Emax: read-out: GABAa alpha1 (α1β2γ2) Emax (%); for EC50: read-out: GABAa alpha1 (α1β2γ2)EC50. Type of assay: cell-based. The procedure:
Cellular electrophysiology is used to measure the pharmacological properties of our GABAA receptor modulators in heterologous cell systems. Each compound is tested for its ability to affect GABA mediated currents at a submaximal agonist dose (GABA EC20=2 μM). LTK cells are stably transfected with the α1β2γ2 subunits of the GABA receptor and CHO cells are transiently transfected with the α4β3δ subunits via the Lipofecatamine method. Cells were passaged at a confluence of about 50-80% and then seeded onto 35 mm sterile culture dishes containing 2 ml culture complete medium without antibiotics or antimycotics. Confluent clusters of cells are electrically coupled (Pritchett et al., 1988). Because responses in distant cells are not adequately voltage clamped and because of uncertainties about the extent of coupling (Verdoorn et al., 1990), cells were cultivated at a density that enables the recording of single cells (without visible connections to other cells).
Whole cell currents were measured with HEKA EPC-10 amplifiers using PatchMaster software or by using the high throughput QPatch platform (Sophion). Bath solution for all experiments contained (in mM): NaCl 137 mM, KCl 4 mM, CaCl2 1.8 mM, MgCl2 1 mM, HEPES 10 mM, D-Glucose 10 mM, pH (NaOH) 7.4. In some cases 0.005% cremophor was also added. Intracellular (pipette) solution contained: KCl 130 mM, MgCl2 1 mM, Mg-ATP 5 mM, HEPES 10 mM, EGTA 5 mM, pH 7.2. During experiments, cells and solutions were maintained at room temperature (19° C.-30° C.). For manual patch clamp recordings, cell culture dishes were placed on the dish holder of the microscope and continuously perfused (1 ml/min) with bath solution. After formation of a Gigaohm seal between the patch electrodes and the cell (pipette resistance range: 2.5 MΩ-6.0 MΩ; seal resistance range: >1 GΩ) the cell membrane across the pipette tip was ruptured to assure electrical access to the cell interior (whole-cell patch-configuration). For experiments using the QPatch system, cells were transferred as suspension to the QPatch system in the bath solution and automated whole cell recordings were performed.
Cells were voltage clamped at a holding potential of −80 mV. For the analysis of test articles, GABA receptors were stimulated by 2 μM GABA after sequential pre-incubation of increasing concentrations of the test article. Pre-incubation duration was 30 s and the duration of the GABA stimulus was 2 s. Test articles were dissolved in DMSO to form stock solutions (10 mM). Test articles were diluted to 0.01, 0.1, 1, and 10 μM in bath solution. All concentrations of test articles were tested on each cell. The relative percentage potentiation was defined as the peak amplitude in response to GABA EC20 in the presence of the test article divided by the peak amplitude in response to GABA EC20 alone, multiplied by 100.
On the technique in general: Patch clamp records ionic current or voltage across a cell membrane.

`C[C@@]1(O)CC[C@H]2[C@H](CC[C@@H]3[C@@H]2CC[C@]2(C)[C@@H](C(=O)Cn4nnc5ccccc54)CC[C@@H]32)C1` [SA-1]: the activity at 10 µM is above 500%; the maximal response (Emax) – broadly, the maximal effect, on the per cent scale that the assay sets – is 500 to 1000%; the 50% effective concentration (EC50) (as a rule, the concentration giving half of the maximal effect) lay within 500 to 1000 nM. On to `C[C@@]1(O)CC[C@H]2[C@H](CC[C@@H]3[C@@H]2CC[C@]2(C)[C@@H](C(=O)Cn4ncc5ncccc54)CC[C@@H]32)C1` [SA-3], for which the “α1β2γ2 GABA Qpatch in Ltk (Efficacy at 10 μm)” value (from here on “α1β2γ2 GABA Qpatch in Ltk”) is “C (“C” indicates an efficacy value of >500%)”, the Emax is 500 to 1000% and the EC50 lay within 1000 to 2000 nM. For `C[C@@]1(O)CC[C@H]2[C@H](CC[C@@H]3[C@@H]2CC[C@]2(C)[C@@H](C(=O)Cn4ncc5ccccc54)CC[C@@H]32)C1` [SA-5], in that order: “C (“C” indicates an efficacy value of >500%)”, 500 to 1000% and 1000 to 2000 nM. On to `C[C@@]1(O)CC[C@H]2[C@H](CC[C@@H]3[C@@H]2CC[C@]2(C)[C@@H](C(=O)Cn4ncc5c4CCCC5)CC[C@@H]32)C1` [SA-8], for which the “α1β2γ2 GABA Qpatch in Ltk” value is given as “B (“B” indicates an efficacy value of >100-500%)”, the maximum response (Emax) was 0 to 500% and the concentration for a half-maximal effect (EC50) was in the range of 1000 to 2000 nM.

For the compound `C[C@@]1(O)CC[C@H]2[C@H](CC[C@@H]3[C@@H]2CC[C@]2(C)[C@@H](C(=O)Cn4ncc5cnccc54)CC[C@@H]32)C1` [SA-9], the “α1β2γ2 GABA Qpatch in Ltk” value is “B (“B” indicates an efficacy value of >100-500%)”. On the same count and under the same terms, the value for `C[C@@]1(O)CC[C@H]2[C@H](CC[C@@H]3[C@@H]2CC[C@]2(C)[C@@H](C(=O)Cn4cc5cnccc5n4)CC[C@@H]32)C1` [SA-10] was “C (“C” indicates an efficacy value of >500%)”.

With `C[C@@]1(O)CC[C@H]2[C@H](CC[C@@H]3[C@@H]2CC[C@]2(C)[C@@H](C(=O)Cn4nnc5cnccc54)CC[C@@H]32)C1` [SA-12], the activity at 10 µM was 100 to 500%. The same measure, in the same setting: the value for `C[C@@]1(O)CC[C@H]2[C@H](CC[C@@H]3[C@@H]2CC[C@]2(C)[C@@H](C(=O)Cn4nnc5ncccc54)CC[C@@H]32)C1` [SA-13] was above 500%. Regarding `C[C@@]1(O)CC[C@H]2[C@H](CC[C@@H]3[C@@H]2CC[C@]2(C)[C@@H](C(=O)Cn4nnc5cccnc54)CC[C@@H]32)C1` [SA-15], the activity at 10 µM was above 500%.

For `C[C@@]1(O)CC[C@H]2[C@H](CC[C@@H]3[C@@H]2CC[C@]2(C)[C@@H](C(=O)Cn4ncc5cc(F)ccc54)CC[C@@H]32)C1` [SA-17], the activity at 10 µM lay within 100 to 500%.

As to `C[C@@]1(O)CC[C@H]2[C@H](CC[C@@H]3[C@@H]2CC[C@]2(C)[C@@H](C(=O)Cn4ncc5cccnc54)CC[C@@H]32)C1` [SA-19], the “α1β2γ2 GABA Qpatch in Ltk” value is recorded as “B (“B” indicates an efficacy value of >100-500%)”, the Emax was in the range of 500 to 1000% and the concentration giving a half-maximal response (EC50) is above 2000 nM. On to `C[C@@]1(O)CC[C@H]2[C@H](CC[C@@H]3[C@@H]2CC[C@]2(C)[C@@H](C(=O)Cn4ncc5ccncc54)CC[C@@H]32)C1` [SA-21], for which the “α1β2γ2 GABA Qpatch in Ltk” value is on record as “B (“B” indicates an efficacy value of >100-500%)”.

As for `C[C@@]1(O)CC[C@H]2[C@H](CC[C@@H]3[C@@H]2CC[C@]2(C)[C@@H](C(=O)Cn4ncc5ccc(F)cc54)CC[C@@H]32)C1` [SA-23], the activity at 10 µM was above 500%. In the case of `Cc1cc2cnn(CC(=O)[C@H]3CC[C@H]4[C@@H]5CC[C@@H]6C[C@](C)(O)CC[C@@H]6[C@H]5CC[C@]34C)c2cn1` [SA-25], the activity at 10 µM is above 500%. For `C[C@@]1(O)CC[C@H]2[C@H](CC[C@@H]3[C@@H]2CC[C@]2(C)[C@@H](C(=O)Cn4ncc5ncc(Cl)cc54)CC[C@@H]32)C1` [SA-27], the activity at 10 µM was above 500%.

Regarding `C[C@@]1(O)CC[C@H]2[C@H](CC[C@@H]3[C@@H]2CC[C@]2(C)[C@@H](C(=O)Cn4ncc5nccnc54)CC[C@@H]32)C1` [SA-29], the activity at 10 µM was in the range of 100 to 500%. Still for that read-out and setting: the figure for `C[C@@]1(O)CC[C@H]2[C@H](CC[C@@H]3[C@@H]2CC[C@]2(C)[C@@H](C(=O)Cn4ncc5ncncc54)CC[C@@H]32)C1` [SA-33] is 100 to 500%; for `C[C@@]1(O)CC[C@H]2[C@H](CC[C@@H]3[C@@H]2CC[C@]2(C)[C@@H](C(=O)Cn4ncc5cncnc54)CC[C@@H]32)C1` [SA-36] it is above 500%; for `C[C@@]1(O)CC[C@H]2[C@H](CC[C@@H]3[C@@H]2CC[C@]2(C)[C@@H](C(=O)Cn4cc5cc(C#N)ccc5n4)CC[C@@H]32)C1` [SA-37] it is above 500%. Same read-out and setting: the value for `C[C@@]1(O)CC[C@H]2[C@H](CC[C@@H]3[C@@H]2CC[C@]2(C)[C@@H](C(=O)Cn4ncc5cc(C#N)ccc54)CC[C@@H]32)C1` [SA-38] was above 500%; that for `C[C@@]1(O)CC[C@H]2[C@H](CC[C@@H]3[C@@H]2CC[C@]2(C)[C@@H](C(=O)Cn4nnc5ccc(Cl)cc54)CC[C@@H]32)C1` [SA-39] was 100 to 500%; that for `C[C@@]1(O)CC[C@H]2[C@H](CC[C@@H]3[C@@H]2CC[C@]2(C)[C@@H](C(=O)Cn4nnc5cc(Cl)ccc54)CC[C@@H]32)C1` [SA-40] was 100 to 500%. In the case of `Cc1ccc2nnn(CC(=O)[C@H]3CC[C@H]4[C@@H]5CC[C@@H]6C[C@](C)(O)CC[C@@H]6[C@H]5CC[C@]34C)c2c1` [SA-42], the activity at 10 µM was in the range of 100 to 500%.

Take `Cc1ccc2c(c1)nnn2CC(=O)[C@H]1CC[C@H]2[C@@H]3CC[C@@H]4C[C@](C)(O)CC[C@@H]4[C@H]3CC[C@]12C` [SA-43]: the activity at 10 µM was in the range of 100 to 500%. Still for that read-out and setting: the value for `Cc1nn(CC(=O)[C@H]2CC[C@H]3[C@@H]4CC[C@@H]5C[C@](C)(O)CC[C@@H]5[C@H]4CC[C@]23C)c2ccccc12` [SA-45] was above 500%. Consider `Cc1c2ccccc2nn1CC(=O)[C@H]1CC[C@H]2[C@@H]3CC[C@@H]4C[C@](C)(O)CC[C@@H]4[C@H]3CC[C@]12C` [SA-46], for which the activity at 10 µM was above 500%. For the compound `COc1ccc2nn(CC(=O)[C@H]3CC[C@H]4[C@@H]5CC[C@@H]6C[C@](C)(O)CC[C@@H]6[C@H]5CC[C@]34C)nc2c1` [SA-47], the activity at 10 µM was above 500%. Still for that read-out and setting: the figure for `C[C@@]1(O)CC[C@H]2[C@H](CC[C@@H]3[C@@H]2CC[C@]2(C)[C@@H](C(=O)Cn4nc5ccccc5c4O)CC[C@@H]32)C1` [SA-54] is above 500%. Consider `C[C@@]1(O)CC[C@H]2[C@H](CC[C@@H]3[C@@H]2CC[C@]2(C)[C@@H](C(=O)Cn4nc(Cl)c5ccccc54)CC[C@@H]32)C1` [SA-55], for which the activity at 10 µM lay in the range of 100 to 500%.

For the compound `C[C@@]1(O)CC[C@H]2[C@H](CC[C@@H]3[C@@H]2CC[C@]2(C)[C@@H](C(=O)Cn4nnc5ncc(Cl)cc54)CC[C@@H]32)C1` [SA-56], the activity at 10 µM is 100 to 500%.

Take `C[C@@]1(O)CC[C@H]2[C@H](CC[C@@H]3[C@@H]2CC[C@]2(C)[C@@H](C(=O)Cn4nc5ccc(F)cc5n4)CC[C@@H]32)C1` [SA-62]: the activity at 10 µM lay within 100 to 500%.

On to `C[C@@]1(O)CC[C@H]2[C@H](CC[C@@H]3[C@@H]2CC[C@]2(C)[C@@H](C(=O)Cn4nnc5c(F)cccc54)CC[C@@H]32)C1` [SA-64], for which the activity at 10 µM lay within 100 to 500%. On the same count and under the same terms, the figure for `C[C@@]1(O)CC[C@H]2[C@H](CC[C@@H]3[C@@H]2CC[C@]2(C)[C@@H](C(=O)Cn4nnc5cccc(F)c54)CC[C@@H]32)C1` [SA-65] is above 500%; for `Cc1cccc2c1nnn2CC(=O)[C@H]1CC[C@H]2[C@@H]3CC[C@@H]4C[C@](C)(O)CC[C@@H]4[C@H]3CC[C@]12C` [SA-67] it is above 500%. The same measure, in the same setting: the figure for `C[C@@]1(O)CC[C@H]2[C@H](CC[C@@H]3[C@@H]2CC[C@]2(C)[C@@H](C(=O)Cn4nc5ccc(OC(F)(F)F)cc5n4)CC[C@@H]32)C1` [SA-72] is above 500%. Still for that read-out and setting: the figure for `COc1cccc2nnn(CC(=O)[C@H]3CC[C@H]4[C@@H]5CC[C@@H]6C[C@](C)(O)CC[C@@H]6[C@H]5CC[C@]34C)c12` [SA-73] is 100 to 500%; for `COc1cccc2c1nnn2CC(=O)[C@H]1CC[C@H]2[C@@H]3CC[C@@H]4C[C@](C)(O)CC[C@@H]4[C@H]3CC[C@]12C` [SA-74] it is 100 to 500%. Regarding `COc1cccc2nn(CC(=O)[C@H]3CC[C@H]4[C@@H]5CC[C@@H]6C[C@](C)(O)CC[C@@H]6[C@H]5CC[C@]34C)nc12` [SA-75], the activity at 10 µM is 100 to 500%.
